Data taken from patent US12409172B2, “Dosage regimen” (UNION therapeutics A/S, priority 2023, dated 2025).
Marks after values point to notes of the source that are not given here.

How the values were obtained:
[1] = system: TNF-α secretion from human whole blood; details: in vitro; cited from earlier work
[2] = system: cytokines in psoriatic lesional skin; test: Skin tape strip biomarkers (Olink Target 96 Inflammation panel) in the phase 2b psoriasis study (Example 10); format: in vivo, human; details: for log2FCH W16_L - BL_L, CCL3 / log2FCH W16_L - BL_L, CCL4 / log2FCH W16_L - BL_L, CCL20 / log2FCH W16_L - BL_L, CSF1 / log2FCH W16_L - BL_L, CXCL1 / log2FCH W16_L - BL_L, CXCL5 / log2FCH W16_L - BL_L, CXCL6 / log2FCH W16_L - BL_L, CXCL9 / log2FCH W16_L - BL_L, CXCL10 / log2FCH W16_L - BL_L, IFNγ / log2FCH W16_L - BL_L, IL8 / log2FCH W16_L - BL_L, IL12B / log2FCH W16_L - BL_L, IL17A / log2FCH W16_L - BL_L, IL18 / log2FCH W16_L - BL_L, IL18R1 / log2FCH W16_L - BL_L, IL. 17C / log2FCH W16_L - BL_L, MMP1 / log2FCH W16_L - BL_L, TNFRSF9 / log2FCH W16_L - BL_L, TNFSF14 / log2FCH W16_L - BL_L, TNFα / log2FCH W16_L - BL_L, TRAIL: Week 16 lesional vs baseline lesional skin
Text: Skin tape strip samples were taken from lesional and non-lesional skin at baseline and lesional skin at week 16 of patients participating in the phase 2b, dose-ranging study assessing oral modified release orismilast in adults with moderate-to-severe plaque psoriasis (NCT05190419) described in Example 3. Approximately twenty consecutive stratum corneum samples were collected from the same skin site by tape stripping (D-squames; Monaderm DS100) of both lesional and non-lesional skin at baseline and lesional skin at week 16. To extract the proteins from the tapes the first ten tapes were pooled together and used for subsequent protein extraction by incubation in 800 μL of PBS containing 0.2% Triton X-100 together with a mixture of protease inhibitors and incubated overnight at 4° C. under stirring at 1400 rpm in a thermo mixer (Eppendorf). The insoluble material was removed by filtration on 0.22 μm filters by centrifugation. The protein extracts were analyzed using the Olink® technology (Target 96 Inflammation panel). Protein extracts from patients treated with placebo, 20 mg orismilast BID, and 30 mg orismilast BID as described in Example 3 were analyzed.
OLINK data was analyzed in R 2023.09.0+463 using a linear mixed effect model (OlinkAnalyse and Ime4) to estimate log 2 fold changes between Week 16 lesional skin versus baseline lesional skin and baseline lesional versus baseline non-lesional skin levels. P-values were corrected for multiple testing using the Benjamini-Hochberg method. The data was further modeled according to a weight-based dosing regimen in which data of the 20 mg Orismilast BID arm was used for patients with a bodyweight at baseline of <100 kg and combined with using data of the 30 mg Orismilast BID arm for patients ≥100 kg, respectively (named “P3DR”).

[3] = system: TNF-α secretion from human whole blood; test: LPS and SEB-induced TNF-α secretion from human whole blood; format: cell-based; details: average; both LPS and SEB-induced TNF-α secretion from human whole blood
healthy volunteers = test: Clinical trial LP0058-1442 (phase 1, NCT03812198): safety and tolerability in healthy volunteers; format: in vivo
Experimental: The safety, tolerability, and PK of orismilast MR and IR formulations were tested in a phase 1 clinical trial (NCT03812198) on healthy volunteers. Participants were randomised (3:1) to received orismilast MR or placebo (n=12). Orismilast MR was administered twice-daily for a total of 17 days. Orismilast MR was initiated at 10 mg twice-daily on days 1-2, increased to 20 mg twice-daily on days 3-4, to 30 mg twice-daily on days 5-6, to 40 mg twice-daily on days 7-8, to 50 mg twice-daily on days 9-10, and finally to 60 mg twice-daily on days 11-17.
Twenty-seven (27) healthy volunteers received a single administration of 30 mg orismilast, and 9 subjects received multiple administrations over a period of 17 days with an up-titration up to a maximum of 60 mg BID. Part 1 of this study was to evaluate the key PK parameters of the new modified-release formulation compared to the reference capsule formulation with immediate release.
In that study, patients received orismilast 30 mg BID immediate release or placebo for 16 weeks.

CYP3A4 = biological target: T1, CYP3A4 (Homo sapiens, UniProt P08684); test: CYP3A4 inhibition from clinical studies; format: in vivo
T1 construct: from tissue; host or cells: human subjects in vivo (clinical studies); no organ is named
Text: Patients receiving orismilast concurrently with these medicinal • products should be monitored for related AEs, especially if they have a narrow therapeutic window.

[4] = P3DR (20 mg <100 kg and 30 mg >=100 kg combined)

T1 sequence (P08684 whole entry): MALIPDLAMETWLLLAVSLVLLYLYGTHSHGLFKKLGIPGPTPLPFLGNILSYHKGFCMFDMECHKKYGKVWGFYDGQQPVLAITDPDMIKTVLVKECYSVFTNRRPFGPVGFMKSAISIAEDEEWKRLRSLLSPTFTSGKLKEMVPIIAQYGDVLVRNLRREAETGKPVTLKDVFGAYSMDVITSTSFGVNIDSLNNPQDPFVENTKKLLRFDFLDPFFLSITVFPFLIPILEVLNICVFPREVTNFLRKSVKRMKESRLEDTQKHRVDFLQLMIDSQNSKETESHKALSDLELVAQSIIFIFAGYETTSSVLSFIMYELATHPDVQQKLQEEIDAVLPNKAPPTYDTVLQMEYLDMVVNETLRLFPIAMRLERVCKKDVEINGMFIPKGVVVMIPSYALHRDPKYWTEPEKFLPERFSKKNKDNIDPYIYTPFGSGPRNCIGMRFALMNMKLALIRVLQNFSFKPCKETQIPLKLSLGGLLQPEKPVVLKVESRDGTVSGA

O=C(Cc1c(Cl)c[n+]([O-])cc1Cl)c1ccc(OC(F)F)c2c1OC1(CCS(=O)(=O)CC1)O2 [orismilast, 2-(3,5-dichloro-1-oxidopyridin-1-ium-4-yl)-1-[7-(difluoromethoxy)-1′,1′-dioxospiro[1,3-benzodioxole-2,4′-thiane]-4-yl]ethanone]
production of tumour necrosis factor α (TNFα) in human whole blood and PBMC [1]: inhibited
log2FCH W16_L - BL_L, CCL3 ([2]; 20 mg BID): −2.68 ***
log2FCH W16_L - BL_L, CCL4 ([2]; 20 mg BID): −2.46 ***
log2FCH W16_L - BL_L, CCL20 ([2]; 20 mg BID): −2.53 ***
log2FCH W16_L - BL_L, CSF1 ([2]; 20 mg BID): −1.35 **
log2FCH W16_L - BL_L, CXCL1 ([2]; 20 mg BID): −1.83 *
log2FCH W16_L - BL_L, CXCL5 ([2]; 20 mg BID): −1.67 **
log2FCH W16_L - BL_L, CXCL6 ([2]; 20 mg BID): −2.34 ***
log2FCH W16_L - BL_L, CXCL9 ([2]; 20 mg BID): −2.40 ***
log2FCH W16_L - BL_L, CXCL10 ([2]; 20 mg BID): −2.20 ***
log2FCH W16_L - BL_L, IFNγ ([2]; 20 mg BID): −1.21 *
log2FCH W16_L - BL_L, IL8 ([2]; 20 mg BID): −1.82 *
log2FCH W16_L - BL_L, IL12B ([2]; 20 mg BID): −2.21 **
log2FCH W16_L - BL_L, IL17A ([2]; 20 mg BID): −2.19 ***
log2FCH W16_L - BL_L, IL18 ([2]; 20 mg BID): −2.10 **
log2FCH W16_L - BL_L, IL18R1 ([2]; 20 mg BID): −1.25 **
log2FCH W16_L - BL_L, IL. 17C ([2]; 20 mg BID): −2.49 ***
log2FCH W16_L - BL_L, MMP1 ([2]; 20 mg BID): −2.41 **
log2FCH W16_L - BL_L, TNFRSF9 ([2]; 20 mg BID): −1.45 ***
log2FCH W16_L - BL_L, TNFSF14 ([2]; 20 mg BID): −1.38 *
log2FCH W16_L - BL_L, TNFα ([2]; 20 mg BID): −1.92 ***
log2FCH W16_L - BL_L, TRAIL ([2]; 20 mg BID): −1.40 **
log2FCH W16_L - BL_L, CCL3 ([2]; 30 mg BID): −3.42 ***
log2FCH W16_L - BL_L, CCL4 ([2]; 30 mg BID): −2.83 ***
log2FCH W16_L - BL_L, CCL20 ([2]; 30 mg BID): −3.36 ***
log2FCH W16_L - BL_L, CSF1 ([2]; 30 mg BID): −1.97 ***
log2FCH W16_L - BL_L, CXCL1 ([2]; 30 mg BID): −2.84 ***
log2FCH W16_L - BL_L, CXCL5 ([2]; 30 mg BID): −2.26 ***
log2FCH W16_L - BL_L, CXCL6 ([2]; 30 mg BID): −3.15 ***
log2FCH W16_L - BL_L, CXCL9 ([2]; 30 mg BID): −3.32 ***
log2FCH W16_L - BL_L, CXCL10 ([2]; 30 mg BID): −2.89 ***
log2FCH W16_L - BL_L, IFNγ ([2]; 30 mg BID): −2.02 ***
log2FCH W16_L - BL_L, IL8 ([2]; 30 mg BID): −2.76 ***
log2FCH W16_L - BL_L, IL12B ([2]; 30 mg BID): −3.38 ***
log2FCH W16_L - BL_L, IL17A ([2]; 30 mg BID): −2.66 ***
log2FCH W16_L - BL_L, IL18 ([2]; 30 mg BID): −3.46 ***
log2FCH W16_L - BL_L, IL18R1 ([2]; 30 mg BID): −1.99 ***
log2FCH W16_L - BL_L, IL. 17C ([2]; 30 mg BID): −3.39 ***
log2FCH W16_L - BL_L, MMP1 ([2]; 30 mg BID): −3.30 ***
log2FCH W16_L - BL_L, TNFRSF9 ([2]; 30 mg BID): −2.03 ***
log2FCH W16_L - BL_L, TNFSF14 ([2]; 30 mg BID): −2.23 ***
log2FCH W16_L - BL_L, TNFα ([2]; 30 mg BID): −2.48 ***
log2FCH W16_L - BL_L, TRAIL ([2]; 30 mg BID): −2.04 ***
log2FCH W16_L - BL_L, CCL3 [2, 4]: −3.60 ***
log2FCH W16_L - BL_L, CCL4 [2, 4]: −3.14 ***
log2FCH W16_L - BL_L, CCL20 [2, 4]: −3.22 ***
log2FCH W16_L - BL_L, CSF1 [2, 4]: −1.86 ***
log2FCH W16_L - BL_L, CXCL1 [2, 4]: −2.34 ***
log2FCH W16_L - BL_L, CXCL5 [2, 4]: −2.25 ***
log2FCH W16_L - BL_L, CXCL6 [2, 4]: −3.02 ***
log2FCH W16_L - BL_L, CXCL9 [2, 4]: −3.24 ***
log2FCH W16_L - BL_L, CXCL10 [2, 4]: −2.94 ***
log2FCH W16_L - BL_L, IFNγ [2, 4]: −1.91 ***
log2FCH W16_L - BL_L, IL8 [2, 4]: −2.42 ***
log2FCH W16_L - BL_L, IL12B [2, 4]: −3.09 ***
log2FCH W16_L - BL_L, IL17A [2, 4]: −2.66 ***
log2FCH W16_L - BL_L, IL18 [2, 4]: −2.96 ***
log2FCH W16_L - BL_L, IL18R1 [2, 4]: −1.83 ***
log2FCH W16_L - BL_L, IL. 17C [2, 4]: −3.20 ***
log2FCH W16_L - BL_L, MMP1 [2, 4]: −3.31 ***
log2FCH W16_L - BL_L, TNFRSF9 [2, 4]: −1.98 ***
log2FCH W16_L - BL_L, TNFSF14 [2, 4]: −2.08 ***
log2FCH W16_L - BL_L, TNFα [2, 4]: −2.50 ***
log2FCH W16_L - BL_L, TRAIL [2, 4]: −1.91 ***
expression of key disease driving cytokines in psoriatic lesions ([2]; oral orismilast for 16 weeks, 20 mg BID and 30 mg BID): significantly reduced
potency relative to apremilast on a molar basis [3]: 23 times
number of adverse events of headache at the 40-mg dose level (healthy volunteers; 40-mg dose level): 6
number of participants with nausea at a dose equal or lower to 40 mg (healthy volunteers; dose equal or lower to 40 mg): 2
maximal tolerated dose (healthy volunteers; modified-release tablet, healthy volunteers): 40 mg BID
number of adverse events of headache (healthy volunteers; subjects receiving orismilast, up-titration up to 60 mg BID): 14
number of subjects with nausea (healthy volunteers; up-titration up to 60 mg BID, 9 subjects): 5
inhibition of CYP3A4 (CYP3A4): weak inhibitor
